Laboratory results taken from ChEMBL document CHEMBL1131751, “Design and synthesis of 2-[4-[4-(m-(ethylsulfonamido)-phenyl) piperazin-1-yl]butyl]-1,3-dioxoperhydropyrrolo[1,2-c]imidazole (EF-7412) using neural networks. A selective derivative with mixed 5-HT1A/D2 antagonist properties” (Bioorg Med Chem Lett, 1999).

Assays:
[1] = molecular target: T1, 5-hydroxytryptamine receptor 1A (Mus musculus, UniProt Q64264); experiment: Binding affinity towards 5-HT1A receptor
T1 sequence (Q64264 whole entry): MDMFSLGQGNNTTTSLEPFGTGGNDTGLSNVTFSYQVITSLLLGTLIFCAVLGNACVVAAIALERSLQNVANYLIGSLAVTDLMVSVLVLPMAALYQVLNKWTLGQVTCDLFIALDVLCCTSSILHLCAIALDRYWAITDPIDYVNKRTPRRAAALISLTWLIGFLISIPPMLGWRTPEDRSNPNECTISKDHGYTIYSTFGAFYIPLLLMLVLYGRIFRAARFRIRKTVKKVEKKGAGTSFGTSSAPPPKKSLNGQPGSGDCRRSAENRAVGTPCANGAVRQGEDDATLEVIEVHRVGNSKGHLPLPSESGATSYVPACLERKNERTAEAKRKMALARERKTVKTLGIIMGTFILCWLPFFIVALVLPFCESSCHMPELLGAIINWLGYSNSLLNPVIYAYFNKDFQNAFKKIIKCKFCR

D(2) dopamine receptor = D(2) dopamine receptor (Mus musculus, UniProt P61168); experiment: Binding affinity towards Dopamine receptor D2
D(2) dopamine receptor, sequence (P61168 whole entry): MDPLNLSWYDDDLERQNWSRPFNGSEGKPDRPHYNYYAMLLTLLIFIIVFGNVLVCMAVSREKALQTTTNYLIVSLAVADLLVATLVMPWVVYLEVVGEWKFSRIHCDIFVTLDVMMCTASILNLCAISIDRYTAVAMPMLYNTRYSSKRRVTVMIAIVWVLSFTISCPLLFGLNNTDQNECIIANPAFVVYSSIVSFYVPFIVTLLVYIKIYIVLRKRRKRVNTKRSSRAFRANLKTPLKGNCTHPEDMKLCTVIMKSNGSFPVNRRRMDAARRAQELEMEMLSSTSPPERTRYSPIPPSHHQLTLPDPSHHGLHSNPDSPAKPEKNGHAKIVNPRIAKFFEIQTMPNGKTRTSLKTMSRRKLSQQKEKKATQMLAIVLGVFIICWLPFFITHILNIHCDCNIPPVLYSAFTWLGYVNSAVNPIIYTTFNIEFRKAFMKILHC

[2] = molecular target: T2, Alpha-1 adrenergic receptor (Mus musculus, UniProt P97714+P97717+P97718); experiment: Binding affinity towards Alpha-1 adrenergic receptor; assay type: protein assay
T2 sequence (P97714 whole entry): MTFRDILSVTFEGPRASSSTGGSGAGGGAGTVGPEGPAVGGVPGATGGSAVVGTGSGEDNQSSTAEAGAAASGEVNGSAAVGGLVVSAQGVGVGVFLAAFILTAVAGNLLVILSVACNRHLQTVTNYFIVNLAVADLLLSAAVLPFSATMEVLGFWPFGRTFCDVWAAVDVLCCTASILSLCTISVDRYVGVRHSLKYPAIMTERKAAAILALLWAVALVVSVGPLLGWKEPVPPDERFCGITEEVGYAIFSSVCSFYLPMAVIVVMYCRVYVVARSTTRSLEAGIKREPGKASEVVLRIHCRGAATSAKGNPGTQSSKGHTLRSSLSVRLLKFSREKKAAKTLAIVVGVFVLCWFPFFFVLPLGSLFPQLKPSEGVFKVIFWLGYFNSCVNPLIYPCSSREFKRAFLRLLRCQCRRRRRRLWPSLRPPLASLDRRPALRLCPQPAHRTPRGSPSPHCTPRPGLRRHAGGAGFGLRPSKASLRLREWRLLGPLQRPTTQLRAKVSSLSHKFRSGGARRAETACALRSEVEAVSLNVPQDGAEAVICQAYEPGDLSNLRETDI
T2 sequence (P97717 whole entry): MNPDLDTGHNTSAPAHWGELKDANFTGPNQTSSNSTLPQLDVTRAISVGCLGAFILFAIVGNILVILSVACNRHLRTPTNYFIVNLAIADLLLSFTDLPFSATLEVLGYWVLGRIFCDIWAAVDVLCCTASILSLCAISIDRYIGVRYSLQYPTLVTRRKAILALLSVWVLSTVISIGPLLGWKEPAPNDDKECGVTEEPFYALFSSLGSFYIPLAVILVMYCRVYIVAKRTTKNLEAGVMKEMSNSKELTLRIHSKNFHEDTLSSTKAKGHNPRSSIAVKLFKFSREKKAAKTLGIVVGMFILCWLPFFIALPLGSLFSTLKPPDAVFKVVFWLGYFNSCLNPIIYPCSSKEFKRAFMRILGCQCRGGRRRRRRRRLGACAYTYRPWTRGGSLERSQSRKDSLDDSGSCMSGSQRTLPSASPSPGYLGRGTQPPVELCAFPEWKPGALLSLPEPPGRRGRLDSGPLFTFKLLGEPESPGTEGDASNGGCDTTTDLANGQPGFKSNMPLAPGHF
T2 sequence (P97718 whole entry): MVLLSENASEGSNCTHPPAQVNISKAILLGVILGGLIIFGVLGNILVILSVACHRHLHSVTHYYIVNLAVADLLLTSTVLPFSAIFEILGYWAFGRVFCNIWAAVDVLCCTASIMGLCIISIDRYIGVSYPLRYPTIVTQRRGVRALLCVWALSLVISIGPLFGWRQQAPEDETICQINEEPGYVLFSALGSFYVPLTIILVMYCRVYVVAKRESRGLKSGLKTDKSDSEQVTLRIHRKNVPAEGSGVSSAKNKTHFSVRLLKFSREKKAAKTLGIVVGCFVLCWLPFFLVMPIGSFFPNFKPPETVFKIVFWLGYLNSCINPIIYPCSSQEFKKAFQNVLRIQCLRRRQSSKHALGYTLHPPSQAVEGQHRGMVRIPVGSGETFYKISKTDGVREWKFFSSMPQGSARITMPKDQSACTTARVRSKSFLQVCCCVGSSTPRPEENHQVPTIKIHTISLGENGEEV

Ki [1]: 27 nM
Ki (D(2) dopamine receptor): 22 nM
Ki [2]: > 1000 nM
SMILES: CCS(=O)(=O)Nc1cccc(N2CCN(CCCCN3C(=O)C4CCCN4C3=O)CC2)c1 (stereo not drawn)
